{"source": "patent US5616615A", "about": "“Enaminone esters” (priority 1995, dated 1997)", "key": {"[1]": {"test_system": "Maximal electroshock seizures", "assay": "MES maximal electroshock seizure test, mice ip", "type": "in vivo", "conditions": "Mus musculus, ip; for responders at 100 mg/kg: read-out: MES, animals protected/tested (converted); for responders at 300 mg/kg: read-out: MES, animals protected/tested", "procedure": "Three tests were performed:\n1. MES--Electroshock Seizure Test\n(§1) Maximal electroshock seizures are elicited with a 60-cycle alternating current of 50 mA intensity (5-7 times that necessary to elicit minimal electroshock seizures) delivered via corneal electrodes for 0.2 seconds. A drop of 0.9% saline is instilled in the eye prior to application of the electrodes in order to […]."}, "[2]": {"test_system": "Subcutaneous Pentylenetetrazol seizure", "assay": "sc Met subcutaneous pentylenetetrazol (Metrazol) seizure test, mice", "type": "in vivo", "conditions": "Mus musculus, sc, read-out: scMet, animals protected/tested (converted)", "quoted_text": "The first phase of the ADD Program involved performing tests on male Carworth Farms #1 mice. […] Three tests were performed:\n2. sc Met--Subcutaneous Pentylenetetrazol (Metrazol^R) Seizure Test\nThe animal is observed for 30 minutes. Failure to observe even a threshold seizure (a single episode of clonic spasms of at least 5 seconds duration) is defined as protection and the results are expressed as the number of animals protected/the number of animals tested."}, "electroshock seizures": {"test_system": "electroshock seizures", "assay": "MES maximal electroshock test, rats ip", "type": "in vivo", "conditions": "for ED50: Rattus norvegicus, ip", "from_the_text": "as §1"}, "[3]": {"test_system": "Maximal electroshock seizures", "assay": "Phase VI oral MES test, rats", "type": "in vivo", "conditions": "Rattus norvegicus, oral, 50 mg/kg, read-out: MES, animals protected/tested (converted)", "from_the_text": "as §1\n(§2) This oral screen is designated as phase VI."}, "in vivo [4]": {"assay": "in vivo", "conditions": "rat, po, 50 mg/kg", "from_the_text": "as §2"}, "seizures": {"test_system": "seizures", "assay": "Anticonvulsant evaluation (ASP phase I / overall)", "type": "in vivo, mice", "conditions": "Mus musculus, ip; Phase I; read-out: ASP Classification", "in_short": "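Male Carworth Farms #1 mice; maximal electroshock seizures elicited by 60-cycle AC, 50 mA, 0.2 s via corneal electrodes after a drop of 0.9% saline in the eye. Animals observed for 30 minutes.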"}, "in vivo [5]": {"assay": "in vivo", "conditions": "rat, ip", "quoted_text": "The rotorod test is used to elevate neurotoxicity. The animal is placed on a 1 inch diameter knurled plastic rod rotating at 6 rpm. […] Neurologic toxicity is defined as the failure of the animal to remain on the rod for 1 minute and the results are expressed as the number of animals protected/the number of animals tested.\nThe toxicity evaluation for the commercial agents as previously indicated was based on the onset of ataxia."}}, "note": "Read-outs that look alike come from different tables or passages of the source."}
{"molecule": "COC(=O)C1C(=O)C=C(Nc2ccc(C(F)(F)F)cc2)CC1C", "note": "(centres unmarked) [Compound 115]", "values": [{"measurement": "responders at 100 mg/kg", "setting": "[1]; 0.5 h, 30 min", "result": 100, "unit": "%"}, {"measurement": "responders at 300 mg/kg", "setting": "[1]; 0.5 h, 30 min", "result": 100, "unit": "%"}, {"measurement": "responders at 100 mg/kg", "setting": "[1]; 4 h, 4 h", "result": 33.3, "unit": "%"}, {"measurement": "responders at 300 mg/kg", "setting": "[1]; 4 h, 4 h", "result": 100, "unit": "%"}, {"measurement": "responders at 100 mg/kg", "setting": "[2]; 0.5 h, 30 min", "result": 0, "unit": "%"}, {"measurement": "responders at 300 mg/kg", "setting": "[2]; 0.5 h, 30 min", "result": 40, "unit": "%"}, {"measurement": "responders at 100 mg/kg", "setting": "[2]; 4 h, 4 h", "result": 0, "unit": "%"}, {"measurement": "responders at 300 mg/kg", "setting": "[2]; 4 h, 4 h", "result": 0, "unit": "%"}, {"measurement": "MES, animals protected/tested", "setting": "electroshock seizures; 1.0 mg/kg, 0.50 h", "result": "0/8"}, {"measurement": "MES, animals protected/tested", "setting": "electroshock seizures; 2.0 mg/kg, 0.50 h (Table VII)", "result": "1/4"}, {"measurement": "MES, animals protected/tested", "setting": "electroshock seizures; 2.0 mg/kg, 0.50 h (Table VIII)", "result": "3/8"}, {"measurement": "MES, animals protected/tested", "setting": "electroshock seizures; 2.0 mg/kg, 1.00 h", "result": "1/4"}, {"measurement": "MES, animals protected/tested", "setting": "electroshock seizures; 3.0 mg/kg, 0.50 h", "result": "3/8"}, {"measurement": "MES, animals protected/tested", "setting": "electroshock seizures; 3.5 mg/kg, 0.50 h", "result": "4/8"}, {"measurement": "MES, animals protected/tested", "setting": "electroshock seizures; 4.0 mg/kg, 0.25 h", "result": "2/4"}, {"measurement": "MES, animals protected/tested", "setting": "electroshock seizures; 4.0 mg/kg, 0.50 h (Table VII)", "result": "3/4"}, {"measurement": "MES, animals protected/tested", "setting": "electroshock seizures; 4.0 mg/kg, 0.50 h (Table VIII)", "result": "7/8"}, {"measurement": "MES, animals protected/tested", "setting": "electroshock seizures; 4.0 mg/kg, 1.00 h", "result": "3/4"}, {"measurement": "MES, animals protected/tested", "setting": "electroshock seizures; 4.0 mg/kg, 2.00 h", "result": "2/4"}, {"measurement": "ED50", "setting": "electroshock seizures; 0.5 h, 0.50 h", "result": 2.95, "unit": "mg/kg"}, {"measurement": "responders at 50 mg/kg", "setting": "[3]; 0.5 h, 0.50 h", "result": 100, "unit": "%"}, {"measurement": "responders at 50 mg/kg", "setting": "[3]; 0.25 h", "result": 75, "unit": "%"}, {"measurement": "responders at 50 mg/kg", "setting": "[3]; 1.00 h", "result": 100, "unit": "%"}, {"measurement": "responders at 50 mg/kg", "setting": "[3]; 2.00 h", "result": 100, "unit": "%"}, {"measurement": "responders at 50 mg/kg", "setting": "[3]; 4.00 h", "result": 100, "unit": "%"}, {"measurement": "Tox, animals toxic/tested", "setting": "in vivo [4]", "result": "0/4"}, {"measurement": "minimal effective dose", "setting": "seizures", "result": "< 100", "unit": "mg/kg"}, {"measurement": "TD50", "setting": "in vivo [5]", "result": "> 64", "unit": "mg/kg"}, {"measurement": "selectivity ratio", "setting": "in vivo [5]", "result": "> 21.7"}, {"measurement": "Tox, animals exhibiting neurotoxicity/tested", "setting": "Neurotoxicity, rats ip; 8 mg/kg, 0.25-24 h", "result": "0/2"}, {"measurement": "Tox, animals exhibiting neurotoxicity/tested", "setting": "Neurotoxicity, rats ip; 16 mg/kg, 0.25-24 h", "result": "0/2"}, {"measurement": "Tox, animals exhibiting neurotoxicity/tested", "setting": "Neurotoxicity, rats ip; 32 mg/kg, 0.25-24 h", "result": "0/2"}, {"measurement": "Tox, animals exhibiting neurotoxicity/tested", "setting": "Neurotoxicity, rats ip; 64 mg/kg, 0.25-24 h", "result": 0.2}]}
{"molecule": "COC(=O)C1C(=O)C=C(Nc2ccc(Br)cc2)CC1C", "note": "(centres unmarked) [Compound 113]", "values": [{"measurement": "responders at 100 mg/kg", "setting": "[1]; 0.5 h, 30 min", "result": 100, "unit": "%"}, {"measurement": "responders at 300 mg/kg", "setting": "[1]; 0.5 h, 30 min", "result": 100, "unit": "%"}, {"measurement": "responders at 100 mg/kg", "setting": "[1]; 4 h, 4 h", "result": 100, "unit": "%"}, {"measurement": "responders at 300 mg/kg", "setting": "[1]; 4 h, 4 h", "result": 100, "unit": "%"}, {"measurement": "responders at 100 mg/kg", "setting": "[2]; 0.5 h, 30 min", "result": 0, "unit": "%"}, {"measurement": "responders at 300 mg/kg", "setting": "[2]; 0.5 h, 30 min", "result": 40, "unit": "%"}, {"measurement": "responders at 100 mg/kg", "setting": "[2]; 4 h, 4 h", "result": 0, "unit": "%"}, {"measurement": "responders at 300 mg/kg", "setting": "[2]; 4 h, 4 h", "result": 0, "unit": "%"}, {"measurement": "MES, animals protected/tested", "setting": "electroshock seizures; 1.2 mg/kg, 0.25 h", "result": "0/8"}, {"measurement": "MES, animals protected/tested", "setting": "electroshock seizures; 3.6 mg/kg, 0.25 h", "result": "5/8"}, {"measurement": "MES, animals protected/tested", "setting": "electroshock seizures; 4.5 mg/kg, 0.25 h", "result": "3/8"}, {"measurement": "MES, animals protected/tested", "setting": "electroshock seizures; 4.8 mg/kg, 0.25 h", "result": "3/4"}, {"measurement": "MES, animals protected/tested", "setting": "electroshock seizures; 4.8 mg/kg, 0.50 h", "result": "3/4"}, {"measurement": "MES, animals protected/tested", "setting": "electroshock seizures; 4.8 mg/kg, 1.00 h", "result": "2/4"}, {"measurement": "MES, animals protected/tested", "setting": "electroshock seizures; 6.0 mg/kg, 0.25 h", "result": "3/4"}, {"measurement": "MES, animals protected/tested", "setting": "electroshock seizures; 6.0 mg/kg, 0.50 h", "result": "2/4"}, {"measurement": "MES, animals protected/tested", "setting": "electroshock seizures; 6.0 mg/kg, 1.00 h", "result": "3/4"}, {"measurement": "MES, animals protected/tested", "setting": "electroshock seizures; 6.0 mg/kg, 2.00 h", "result": "0/4"}, {"measurement": "MES, animals protected/tested", "setting": "electroshock seizures; 7.0 mg/kg, 0.25 h", "result": "7/8"}, {"measurement": "ED50", "setting": "electroshock seizures; 0.25 h", "result": 4, "unit": "mg/kg"}, {"measurement": "responders at 50 mg/kg", "setting": "[3]; 0.5 h, 0.50 h", "result": 100, "unit": "%"}, {"measurement": "responders at 50 mg/kg", "setting": "[3]; 0.25 h", "result": 75, "unit": "%"}, {"measurement": "responders at 50 mg/kg", "setting": "[3]; 1.00 h", "result": 100, "unit": "%"}, {"measurement": "responders at 50 mg/kg", "setting": "[3]; 2.00 h", "result": 100, "unit": "%"}, {"measurement": "responders at 50 mg/kg", "setting": "[3]; 4.00 h", "result": 100, "unit": "%"}, {"measurement": "Tox, animals toxic/tested", "setting": "in vivo [4]", "result": "0/4"}, {"measurement": "minimal effective dose", "setting": "seizures", "result": "< 100", "unit": "mg/kg"}, {"measurement": "TD50 at 2 h", "setting": "in vivo [5]", "result": 270, "unit": "mg/kg"}, {"measurement": "selectivity ratio", "setting": "in vivo [5]", "result": 67.4}, {"measurement": "Tox, animals exhibiting neurotoxicity/tested", "setting": "Neurotoxicity, rats ip; 100 mg/kg, 2.00 h (Table VIII)", "result": "0/8"}, {"measurement": "Tox, animals exhibiting neurotoxicity/tested", "setting": "Neurotoxicity, rats ip; 180 mg/kg, 2.00 h (Table VII)", "result": "2/4"}, {"measurement": "Tox, animals exhibiting neurotoxicity/tested", "setting": "Neurotoxicity, rats ip; 180 mg/kg, 2.00 h (Table VIII)", "result": "2/8"}, {"measurement": "Tox, animals exhibiting neurotoxicity/tested", "setting": "Neurotoxicity, rats ip; 180 mg/kg, 4.00 h", "result": "1/8"}, {"measurement": "Tox, animals exhibiting neurotoxicity/tested", "setting": "Neurotoxicity, rats ip; 220 mg/kg, 0.25 h", "result": "0/8"}, {"measurement": "Tox, animals exhibiting neurotoxicity/tested", "setting": "Neurotoxicity, rats ip; 220 mg/kg, 0.50 h", "result": "0/8"}, {"measurement": "Tox, animals exhibiting neurotoxicity/tested", "setting": "Neurotoxicity, rats ip; 220 mg/kg, 1.00 h", "result": "1/8"}, {"measurement": "Tox, animals exhibiting neurotoxicity/tested", "setting": "Neurotoxicity, rats ip; 220 mg/kg, 2.00 h", "result": "4/8"}, {"measurement": "Tox, animals exhibiting neurotoxicity/tested", "setting": "Neurotoxicity, rats ip; 220 mg/kg, 2.00 h (Table VIII)", "result": "4/8"}, {"measurement": "Tox, animals exhibiting neurotoxicity/tested", "setting": "Neurotoxicity, rats ip; 220 mg/kg, 6.00 h", "result": "0/8"}, {"measurement": "Tox, animals exhibiting neurotoxicity/tested", "setting": "Neurotoxicity, rats ip; 220 mg/kg, 24.00 h", "result": "0/8"}, {"measurement": "Tox, animals exhibiting neurotoxicity/tested", "setting": "Neurotoxicity, rats ip; 440 mg/kg, 2.00 h", "result": "6/8"}]}
